Experimental data as given in ChEMBL document CHEMBL5724914, “Linking interpersonal differences in gut microbiota composition and drug biotransformation activity” (2024).

Assays:
[1] = (§1) The drug is tested on Z-030 corresponding to mouse gut metagenome with ENA study accession number: PRJEB37062 and ENA sample accession number: ERS12561829 for biotransformation under anaerobic condition. The drug concentrations were measured over 9 timepoints collected between 0 and 24 hours of incubation by liquid-chromatography-coupled mass spectrometry (LC–MS); settings: 2 µM
[2] = as §1, with “Z-028” for “Z-030”, “ERS12561827” for “ERS12561829”; settings: 2 µM
[3] = as §1, with “Z-027” for “Z-030”, “to” for “to mouse gut”, “ERS12561826” for “ERS12561829”; settings: 2 µM
[4] = as §1, with “Z-016” for “Z-030”, “ERS12561815” for “ERS12561829”; settings: 2 µM
[5] = as §1, with “Z-011” for “Z-030”, “ERS12561811” for “ERS12561829”; settings: 2 µM
[6] = as §1, with “Z-010” for “Z-030”, “to” for “to mouse gut”, “ERS12561810” for “ERS12561829”; settings: 2 µM
[7] = as §1, with “Z-004” for “Z-030”, “to” for “to mouse gut”, “ERS12561804” for “ERS12561829”; settings: 2 µM
[8] = as §1, with “WLS-240” for “Z-030”, “human” for “mouse”, “ERS12561773” for “ERS12561829”; settings: 2 µM
[9] = as §1, with “WLS-098” for “Z-030”, “human” for “mouse”, “ERS12561754” for “ERS12561829”; settings: 2 µM
[10] = as §1, with “WLS-038” for “Z-030”, “human” for “mouse”, “ERS12561745” for “ERS12561829”; settings: 2 µM
[11] = human gut metagenome, 24 h, 2 µM
[12] = human gut metagenome, 24 h, 2 µM; remark: listed apart in the source
[13] = human gut metagenome, 24 h, 2 µM; remark: listed apart in the source
[14] = human gut metagenome, 24 h, 2 µM; remark: listed apart in the source
[15] = human gut metagenome, 24 h, 2 µM; remark: listed apart in the source
[16] = human gut metagenome, 24 h, 2 µM; remark: listed apart in the source
[17] = human gut metagenome, 24 h, 2 µM; remark: listed apart in the source
[18] = human gut metagenome, 24 h, 2 µM; remark: listed apart in the source
[19] = human gut metagenome, 24 h, 2 µM; remark: listed apart in the source
[20] = as §1, with “Z-019” for “Z-030”, “rat” for “mouse”, “ERS12561818” for “ERS12561829”; settings: 2 µM
Note: call rule not given here.

Bacterial Biotransformation [1] | Bacterial Biotransformation [2] | Bacterial Biotransformation [3] | Bacterial Biotransformation [4] | Bacterial Biotransformation [5] | Bacterial Biotransformation [6] | Bacterial Biotransformation [7] | Bacterial Biotransformation [8] | Bacterial Biotransformation [9] | Bacterial Biotransformation [10] | Bacterial Biotransformation [11] | Bacterial Biotransformation [12] | Bacterial Biotransformation [13] | Bacterial Biotransformation [14] | Bacterial Biotransformation [15] | Bacterial Biotransformation [16] | Bacterial Biotransformation [17] | Bacterial Biotransformation [18] | Bacterial Biotransformation [19] | Bacterial Biotransformation [20] | SMILES
Compound NOT metabolized | Compound NOT metabolized | Compound metabolized | Compound metabolized | Compound metabolized | Compound metabolized | Compound metabolized | Compound NOT metabolized | Compound metabolized | Compound NOT metabolized | Compound NOT metabolized | Compound NOT metabolized | Compound NOT metabolized | Compound NOT metabolized | Compound NOT metabolized | Compound NOT metabolized |  |  |  |  | CSc1ccc2c(c1)C(N1CCN(C)CC1)Cc1ccccc1S2.O=C(O)/C=C\C(=O)O (stereo not drawn)
Compound NOT metabolized | Compound NOT metabolized | Compound NOT metabolized | Compound NOT metabolized | Compound NOT metabolized | Compound NOT metabolized | Compound NOT metabolized | Compound NOT metabolized | Compound metabolized | Compound metabolized | Compound metabolized | Compound metabolized | Compound NOT metabolized | Compound metabolized | Compound metabolized | Compound metabolized | Compound metabolized | Compound metabolized | Compound NOT metabolized |  | CN1CCC[C@@H]1CCO[C@](C)(c1ccccc1)c1ccc(Cl)cc1.O=C(O)/C=C/C(=O)O [CLEMASTINE FUMARATE]
Compound NOT metabolized | Compound NOT metabolized | Compound NOT metabolized |  |  |  | Compound NOT metabolized | Compound NOT metabolized | Compound NOT metabolized | Compound NOT metabolized | Compound NOT metabolized | Compound NOT metabolized | Compound NOT metabolized | Compound NOT metabolized | Compound NOT metabolized | Compound NOT metabolized | Compound NOT metabolized | Compound NOT metabolized | Compound NOT metabolized |  | CCOC(=O)[C@H](CCc1ccccc1)N[C@@H](C)C(=O)N1CCC[C@H]1C(=O)O.O=C(O)/C=C\C(=O)O [ENALAPRIL MALEATE]
Compound NOT metabolized | Compound metabolized | Compound metabolized | Compound metabolized | Compound metabolized | Compound metabolized | Compound NOT metabolized | Compound metabolized | Compound metabolized | Compound metabolized | Compound metabolized | Compound metabolized | Compound metabolized | Compound metabolized | Compound metabolized | Compound metabolized | Compound metabolized | Compound metabolized | Compound metabolized |  | CC(C)(C)NC(=O)[C@H]1CC[C@H]2[C@@H]3CC[C@H]4NC(=O)C=C[C@]4(C)[C@H]3CC[C@]12C [FINASTERIDE]
Compound NOT metabolized | Compound metabolized | Compound metabolized |  | Compound metabolized | Compound metabolized |  | Compound metabolized | Compound metabolized | Compound metabolized |  | Compound metabolized | Compound metabolized |  |  | Compound metabolized |  | Compound metabolized | Compound metabolized | Compound metabolized | C#C[C@]1(OC(C)=O)CC[C@H]2[C@@H]3CCC4=CC(=O)CC[C@@H]4[C@H]3CC[C@@]21C [NORETHINDRONE ACETATE]
Compound NOT metabolized | Compound metabolized | Compound NOT metabolized | Compound metabolized | Compound metabolized | Compound metabolized | Compound NOT metabolized | Compound NOT metabolized | Compound NOT metabolized | Compound metabolized | Compound NOT metabolized | Compound NOT metabolized | Compound NOT metabolized |  |  |  |  | Compound NOT metabolized | Compound metabolized | Compound NOT metabolized | CC(=O)O[C@H]1C(=O)[C@@]2(C)[C@H]([C@H](OC(=O)c3ccccc3)[C@]3(O)C[C@H](OC(=O)[C@H](O)[C@@H](NC(=O)c4ccccc4)c4ccccc4)C(C)=C1C3(C)C)[C@]1(OC(C)=O)CO[C@@H]1C[C@@H]2O [PACLITAXEL]
Compound NOT metabolized | Compound metabolized | Compound NOT metabolized | Compound NOT metabolized | Compound NOT metabolized |  | Compound NOT metabolized | Compound metabolized | Compound metabolized | Compound metabolized | Compound metabolized | Compound metabolized | Compound metabolized | Compound metabolized | Compound metabolized | Compound metabolized | Compound metabolized | Compound metabolized | Compound metabolized | Compound NOT metabolized | O=C1C(CC[S+]([O-])c2ccccc2)C(=O)N(c2ccccc2)N1c1ccccc1 (stereo not drawn) [SULFINPYRAZONE]
Compound NOT metabolized | Compound NOT metabolized | Compound NOT metabolized | Compound NOT metabolized | Compound NOT metabolized | Compound metabolized | Compound NOT metabolized | Compound NOT metabolized | Compound NOT metabolized |  | Compound NOT metabolized | Compound NOT metabolized | Compound NOT metabolized |  | Compound metabolized | Compound NOT metabolized |  | Compound NOT metabolized |  | Compound NOT metabolized | CCCCCNC(=N)N/N=C/c1c[nH]c2ccc(OC)cc12.O=C(O)/C=C\C(=O)O [TEGASEROD MALEATE]

SMILES | Bacterial Biotransformation [1] | Bacterial Biotransformation [2] | Bacterial Biotransformation [3] | Bacterial Biotransformation [4] | Bacterial Biotransformation [5] | Bacterial Biotransformation [6] | Bacterial Biotransformation [7] | Bacterial Biotransformation [8] | Bacterial Biotransformation [9] | Bacterial Biotransformation [10] | Bacterial Biotransformation [11] | Bacterial Biotransformation [12] | Bacterial Biotransformation [13] | Bacterial Biotransformation [14] | Bacterial Biotransformation [15] | Bacterial Biotransformation [16] | Bacterial Biotransformation [17] | Bacterial Biotransformation [18] | Bacterial Biotransformation [19] | Bacterial Biotransformation [20]
CN1[C@@H]2CC[C@H]1C[C@@H](OC(=O)[C@H](CO)c1ccccc1)C2 [HYOSCYAMINE] | Compound NOT metabolized | Compound NOT metabolized | Compound NOT metabolized |  |  |  | Compound NOT metabolized | Compound metabolized | Compound metabolized |  |  | Compound NOT metabolized |  | Compound metabolized |  |  | Compound metabolized |  | Compound NOT metabolized | Compound NOT metabolized
COc1ccc(Cc2nccc3cc(OC)c(OC)cc23)cc1OC [PAPAVERINE] | Compound NOT metabolized | Compound NOT metabolized | Compound NOT metabolized | Compound NOT metabolized | Compound NOT metabolized |  | Compound NOT metabolized |  |  | Compound NOT metabolized | Compound metabolized | Compound metabolized | Compound metabolized | Compound metabolized | Compound metabolized | Compound metabolized | Compound metabolized | Compound metabolized | Compound metabolized | Compound NOT metabolized
